Data as given in patent US20110076261A1, “Antifungal Drug Delivery System” (priority 2007, published 2011).
Like-named read-outs stand apart in the source and are kept apart here.

Experiments:
[1] = at 25° C.; cited from earlier work
[2] = Source text: Accordingly, when looking at a particular acid, the percent of ionization of that acid can be determined by the following formula: […]
[3] = cited from earlier work

For NC(N)=O [Urea], the pKa [1] is listed as 0.10.
In the case of O=C[C@H](O)[C@@H](O)[C@H](O)[C@H](O)C(=O)O [Glucoronic, glucuronic acid], the pKa [1] is listed as 3.28.
In the case of O=C(O)c1ccccc1O [Salicylic, salicylic acid], the percent ionized ([2]; in water, pH 2.2) is reported as “approximately 9%”, the “pH−pKa value” ([2]; pH 2.2) is reported as −0.77 and the “pH−pKa value” ([2]; pH 5) is reported as 2.03. The percent ionized ([2]; pH raised to 5) was “approximately 99%” and the “normal pH in water” value [3] was 2.2.
For O=C(O)C(O)c1ccccc1 (centres unmarked) [Mandelic, mandelic acid], the pKa [1] is given as 3.85.
